# Results as given in patent publication US4705777A, “Cationic oligopeptides having microbicidal activity” (priority 1985, dated 1987).
# Legend:
# [1] = tested on: Pseudomonas aeruginosa PAO 579; test: Antibacterial activity of rabbit granulocyte peptides (Table III), P. aeruginosa; assay type: cell-based; conditions: 50 μg/ml, 20 min
# Protocol: (§1) The procedure parallels that reported in Lehrer et al., Infection and Immunity (1983) 42:10-14. […] The subculture was grown at 37° C. for 4 h with shaking to provide mid-logarithmic phase organisms that were washed twice with buffer by centrifugation (2000×g, 10 min), and then quantitated spectrophotometrically at 620 nm, with reference to previously established CFU/Optical Density relationships. Bacteria were suspended and experiments were performed in 10 mM sodium phosphate buffer, pH 7.4. In some experiments, buffers were supplemented with 0.14 M NaCl ("high" ionic strength). […] In some experiments, 10 mM phosphate buffer with a pH of 5.8 and conductivity of 1.36 mMHO was used. Peptide "stock solutions" were prepared at 500 μg/ml (microbiuret assay) in 0.01% acetic acid, and stored at -20° C. Typically, incubation mixtures contained 1×10^5 bacterial CFU and 5 μg of peptide in 100 μl of buffer. After incubation for 20 min at 37° C., 900 μl of the same buffer was added, and two additional serial tenfold dilutions were made with that buffer. Duplicate 100 μl aliquots from the three serial dilutions were spread over appropriate nutrient agar plates and incubated for 24-72 h to insure full colony development. Killing of microorganisms was expressed as the logarithm10 No /N, where No represented the initial colony count and N represented the colony count after incubation with peptide. There was no significant alteration in colony count when any of the test organisms were exposed to peptide-free buffer for 20 min.
# Streptococcus Group B = test: Antibacterial action, % killing (Table II), Streptococcus Group B; assay type: cell-based; conditions: 50 μg/ml peptide, 10^7 bacterial cells/ml, 20 min, 37°
# Protocol: (§2) To test antibacterial action of the polypeptides, the following protocol was employed. Various species at 10^7 bacterial cells/ml are incubated for 20 min at 37° with 50 μg/ml of the candidate peptide. Colony counts (viable organisms) are made at the outset of the incubation--beforeaddition of the candidate peptide--and after 20 min of incubation with the candidate peptide.
# [2] = tested on: Staphylococcus aureus J.F.; test: Antibacterial activity of rabbit granulocyte peptides (Table III), S. aureus J.F.; assay type: cell-based; conditions: 50 μg/ml, 20 min, 37° C., 10 mM sodium phosphate buffer pH 7.4
# Protocol: as §1
# E. coli = test: Antibacterial action, % killing (Table II), E. coli; assay type: cell-based, Escherichia coli; conditions: 50 μg/ml peptide, 10^7 bacterial cells/ml, 20 min, 37°
# Protocol: as §2
# [3] = tested on: Streptococcus pneumoniae Type III; test: Antibacterial activity of rabbit granulocyte peptides (Table III), S. pneumoniae; assay type: cell-based; conditions: 50 μg/ml, 20 min, 37° C., 10 mM sodium phosphate buffer pH 7.4
# Protocol: as §1
# [4] = tested on: Listeria monocytogenes 450; test: Antibacterial activity of rabbit granulocyte peptides (Table III), L. monocytogenes; assay type: cell-based; conditions: 50 μg/ml, 20 min
# Protocol: as §1
# [5] = tested on: Streptococcus agalactiae Type-I-A; test: Antibacterial activity of rabbit granulocyte peptides (Table III), S. agalactiae Type-I-A; assay type: cell-based; conditions: 50 μg/ml, 20 min
# Protocol: as §1
# Serratia marcescens = test: Antibacterial activity of rabbit granulocyte peptides (Table III), S. marcescens; assay type: cell-based; conditions: 50 μg/ml, 20 min, 37° C., 10 mM sodium phosphate buffer pH 7.4
# Protocol: as §1
# [6] = tested on: Staphylococcus epidermidis UCLA-622; test: Antibacterial activity of rabbit granulocyte peptides (Table III), S. epidermidis; assay type: cell-based; conditions: 50 μg/ml, 20 min, 37° C., 10 mM sodium phosphate buffer pH 7.4
# Protocol: as §1
# [7] = tested on: Escherichia coli ATCC 29648; test: Antibacterial activity of rabbit granulocyte peptides (Table III), E. coli; assay type: cell-based; conditions: 50 μg/ml, 20 min, 37° C., 10 mM sodium phosphate buffer pH 7.4
# Protocol: as §1
# S. albus = test: Antibacterial action, % killing (Table II), S. albus; assay type: cell-based, Staphylococcus albus; conditions: 50 μg/ml peptide, 10^7 bacterial cells/ml, 20 min, 37°
# Protocol: as §2
# [8] = tested on: Klebsiella pneumoniae ATCC 13883; test: Antibacterial activity of rabbit granulocyte peptides (Table III), K. pneumoniae; assay type: cell-based; conditions: 50 μg/ml, 20 min
# Protocol: as §1
# [9] = tested on: Staphylococcus aureus 502A; test: Antibacterial activity of rabbit granulocyte peptides (Table III), S. aureus 502A; assay type: cell-based; conditions: 50 μg/ml, 20 min, 37° C., 10 mM sodium phosphate buffer pH 7.4
# Protocol: as §1
# [10] = tested on: Bordetella bronchiseptica UCLA-342; test: Antibacterial activity of rabbit granulocyte peptides (Table III), B. bronchiseptica; assay type: cell-based; conditions: 50 μg/ml, 20 min, 37° C., 10 mM sodium phosphate buffer pH 7.4
# Protocol: as §1
# S. aureus 502A = test: Antibacterial action, % killing (Table II), S. aureus 502A; assay type: cell-based, Staphylococcus aureus; conditions: 50 μg/ml peptide, 10^7 bacterial cells/ml, 20 min, 37°
# Protocol: as §2
# [11] = tested on: Hemophilus influenzae Type 3A; test: Antibacterial activity of rabbit granulocyte peptides (Table III), H. influenzae; assay type: cell-based; conditions: 50 μg/ml, 20 min, 37° C., 10 mM sodium phosphate buffer pH 7.4
# Protocol: as §1
# Ps. aeruginosa = test: Antibacterial action, % killing (Table II), Ps. aeruginosa; assay type: cell-based, Pseudomonas aeruginosa; conditions: 50 μg/ml peptide, 10^7 bacterial cells/ml, 20 min, 37°
# Protocol: as §2
# [12] = tested on: Staphylococcus aureus 566; test: Antibacterial activity of rabbit granulocyte peptides (Table III), S. aureus 566; assay type: cell-based; conditions: 50 μg/ml, 20 min, 37° C., 10 mM sodium phosphate buffer pH 7.4
# Protocol: as §1
# [13] = tested on: Streptococcus agalactiae Type IIIU; test: Antibacterial activity of rabbit granulocyte peptides (Table III), S. agalactiae Type IIIU; assay type: cell-based; conditions: 50 μg/ml, 20 min, 37° C., 10 mM sodium phosphate buffer pH 7.4
# Protocol: as §1
# L. monocytogenes = test: Antibacterial action, % killing (Table II), L. monocytogenes; assay type: cell-based, Listeria monocytogenes; conditions: 50 μg/ml peptide, 10^7 bacterial cells/ml, 20 min, 37°
# Protocol: as §2
# [14] = 37° C., 10 mM sodium phosphate buffer pH 7.4
# [15] = buffer pH 7.4 supplemented with 0.14 M NaCl
substance,measurement,setting,value
val val cys ala cys arg arg ala leu cys leu pro leu glu arg arg ala gly phe cys arg ile arg gly arg ile his pro leu cys cys arg arg [NP-2],"Bactericidal activity log10 No /N, Pseudomonas aeruginosa PAO 579, pH 5.8",[1]; 10 mM phosphate buffer pH 5.8,0.2 log10
same,"Bactericidal activity log10 No /N, Pseudomonas aeruginosa PAO 579",[1]; [14],3.2 log10
same,"Bactericidal activity log10 No /N, Pseudomonas aeruginosa PAO 579, ""High"" ionic strength",[1]; [15],0.0 log10
same,"% Killing, Streptococcus Group B",Streptococcus Group B,C (50-90% killing)
same,"Bactericidal activity log10 No /N, Staphylococcus aureus J.F.",[2],2.9 log10
same,"% Killing, E. coli",E. coli,B (90-99% killing)
same,"Bactericidal activity log10 No /N, Streptococcus pneumoniae Type III",[3],> 3.5 log10
same,"Bactericidal activity log10 No /N, Listeria monocytogenes 450, pH 5.8",[4]; 10 mM phosphate buffer pH 5.8,0.1 log10
same,"Bactericidal activity log10 No /N, Listeria monocytogenes 450",[4]; [14],2.1 log10
same,"Bactericidal activity log10 No /N, Listeria monocytogenes 450, ""High"" ionic strength",[4]; [15],0.2 log10
same,"Bactericidal activity log10 No /N, Streptococcus agalactiae Type 1A, pH 5.8",[5]; 10 mM phosphate buffer pH 5.8,0.1 log10
same,"Bactericidal activity log10 No /N, Streptococcus agalactiae Type-I-A",[5]; [14],2.0 log10
same,"Bactericidal activity log10 No /N, Streptococcus agalactiae Type 1A, ""High"" ionic strength",[5]; [15],0.1 log10
same,"Bactericidal activity log10 No /N, Serratia marcescens",Serratia marcescens,1.0 log10
same,"Bactericidal activity log10 No /N, Staphylococcus epidermidis UCLA-622",[6],> 4.1 log10
same,"Bactericidal activity log10 No /N, Escherichia coli ATCC 29648",[7],0.8 log10
same,"% Killing, S. albus",S. albus,B (90-99% killing)
same,"Bactericidal activity log10 No /N, Klebsiella pneumoniae ATCC 13883, pH 5.8",[8]; 10 mM phosphate buffer pH 5.8,0.5 log10
same,"Bactericidal activity log10 No /N, Klebsiella pneumoniae ATCC 13883",[8]; [14],1.1 log10
same,"Bactericidal activity log10 No /N, Klebsiella pneumoniae ATCC 13883, ""High"" ionic strength",[8]; [15],0.0 log10
same,"Bactericidal activity log10 No /N, Staphylococcus aureus 502A",[9],2.4 log10
same,"Bactericidal activity log10 No /N, Bordetella bronchiseptica UCLA-342",[10],0.1 log10
same,"% Killing, S. aureus 502A",S. aureus 502A,D (<50% killing)
same,"Bactericidal activity log10 No /N, Hemophilus influenzae Type 3A",[11],2.0 log10
same,"% Killing, Ps. aeruginosa",Ps. aeruginosa,A (>99% killing)
same,"Bactericidal activity log10 No /N, Staphylococcus aureus 566",[12],> 4.1 log10
same,"Bactericidal activity log10 No /N, Streptococcus agalactiae Type IIIU",[13],2.9 log10
same,"% Killing, L. monocytogenes",L. monocytogenes,A (>99% killing)
